# Assay results as given in US20250319034A1, “MICROSPHERE PRODUCTION METHOD” (VITALTE LIFESCIENCES INC., priority 2024, published 2025).
# Assay: T release study in saline incubation media
# Format: physicochemical
# Settings: saline incubation media, 2, 4 and 6 hours
# Description: In order to compare the release rate results of hydrogel encapsulated T to pelleted T, larger gels had to be prepared as the T pellets which the hydrogels are intended to replace are 25 mg, where the E2 pellets are merely 6 mg. Thus, approximately 83 mg of hydrogel at 30% T loading and 1% HA were prepared. In order to achieve even or consistent crosslinking in these much larger hydrogel samples, Likarda's patented micromolds (shown in FIG. 21) were employed. After formation, the encapsulated T was removed from the molds and placed in tubes to be rotated for an hour. The encapsulated T hydrogels were then removed from the tubes and stored in Dulbecco's PBS buffer. The large hydrogel blocks encapsulating T were then tested and compared to 25 mg T pellets and micronized T powder.
# The T powder was produced as a 2.5 mg/mL slurry in buffer to reach the near saturation point of T in the buffer. Samples of the T powder slurry were removed from only the top layer of the slurry fluid to avoid aspirating T particles in the slurry that may have precipitated at to the bottom. T pellets were collected directly from the vials in which they were stored. The 83 mg hydrogels containing 30% T were collected from Dulbecco's PBS buffer, rinsed, and dried. Each of the collected samples was then placed in a separate container of incubation media (saline in this instance) for the release studies. […]
structure (smiles),measurement,value
"C[C@]12CC[C@H]3[C@@H](CCC4=CC(=O)CC[C@@]43C)[C@@H]1CC[C@@H]2O [T powder, Testosterone]",approximate saturation level of T in saline,about 1.5 mg/L
